Test results taken from patent publication US10966978B2, “Dose and regimen for HDM2-p53 interaction inhibitors” (Novartis AG, priority 2016, dated 2021).
Like-named read-outs stand apart in the source and are kept apart here.

Tested on: patients with advanced TP53 wild-type (WT) leukemias
Description: Patients with Ph+ ALL who show early markers of relapse in MRD surveillance can be considered for inclusion as long as other therapies such as TKIs are exhausted or cannot be given. • Tumor of the patient is TP53 wt characterized by, at a minimum, no mutations in exons 5, 6, 7 and 8, and the p53 status was obtained from a bone-marrow sample, collected no longer than 3 months before signing the main ICF. Safety and Tolerability Profile of Regimen 1B in Hematological Tumors

COc1ncc(-c2nc3c(n2C(C)C)[C@H](c2ccc(Cl)cc2)N(c2cc(Cl)cn(C)c2=O)C3=O)c(OC)n1 [HDM201, (S)-5-(5-Chloro-1-methyl-2-oxo-1,2-dihydro-pyridin-3-yl)-6-(4-chloro-phenyl)-2-(2,4-dimethoxy-pyrimidin-5-yl)-1-isopropyl-5,6-dihydro-1H-pyrrolo[3,4-d]imidazol-4-one]
AE: Fatigue (Regimen 1A N = 16, All Grades): 4 (25.0) n (%) | AE: Febrile Neutropenia (Regimen 1A N = 16, All Grades): 4 (25.0) n (%) | AE: Gamma-Glutamyltransferase Increased (Regimen 1A N = 16, All Grades): 2 (12.5) n (%) | AE: General Physical Health Deterioration (Regimen 1A N = 16, All Grades): 2 (12.5) n (%) | AE: Gingival Bleeding (Regimen 1A N = 16, All Grades): 2 (12.5) n (%) | AE: Graft Versus Host Disease (Regimen 1A N = 16, All Grades): 1 (6.3) n (%) | AE: Haemoglobin Decreased (Regimen 1A N = 16, All Grades): 1 (6.3) n (%) | AE: Headache (Regimen 1A N = 16, All Grades): 1 (6.3) n (%) | AE: Hyperbilirubinaemia (Regimen 1A N = 16, All Grades): 1 (6.3) n (%) | AE: Hyperglycaemia (Regimen 1A N = 16, All Grades): 1 (6.3) n (%) | AE: Hyperkalaemia (Regimen 1A N = 16, All Grades): 0 n (%) | AE: Hyperphosphataemia (Regimen 1A N = 16, All Grades): 1 (6.3) n (%) | AE: Hyperuricaemia (Regimen 1A N = 16, All Grades): 2 (12.5) n (%) | AE: Hypoalbuminaemia (Regimen 1A N = 16, All Grades): 1 (6.3) n (%) | AE: Hypocalcaemia (Regimen 1A N = 16, All Grades): 2 (12.5) n (%) | AE: Hypokalaemia (Regimen 1A N = 16, All Grades): 0 n (%) | AE: Hypomagnesaemia (Regimen 1A N = 16, All Grades): 1 (6.3) n (%) | AE: Hyponatraemia (Regimen 1A N = 16, All Grades): 1 (6.3) n (%) | AE: Hypophosphataemia (Regimen 1A N = 16, All Grades): 2 (12.5) n (%) | AE: Hypotension (Regimen 1A N = 16, All Grades): 1 (6.3) n (%) | AE: Infection (Regimen 1A N = 16, All Grades): 1 (6.3) n (%) | AE: Infective Glossitis (Regimen 1A N = 16, All Grades): 0 n (%) | AE: Iron Overload (Regimen 1A N = 16, All Grades): 1 (6.3) n (%) | AE: Leukopenia (Regimen 1A N = 16, All Grades): 2 (12.5) n (%) | AE: Lip Oedema (Regimen 1A N = 16, All Grades): 1 (6.3) n (%) | AE: Lipase Increased (Regimen 1A N = 16, All Grades): 3 (18.8) n (%) | AE: Macular Oedema (Regimen 1A N = 16, All Grades): 0 n (%) | AE: Malaise (Regimen 1A N = 16, All Grades): 1 (6.3) n (%) | AE: Mouth Haemorrhage (Regimen 1A N = 16, All Grades): 2 (12.5) n (%) | AE: Nausea (Regimen 1A N = 16, All Grades): 10 (62.5) n (%) | AE: Neutropenia/Neutrophil Count Decreased (Regimen 1A N = 16, All Grades): 6 (37.5) n (%) | AE: Oedema (Regimen 1A N = 16, All Grades): 1 (6.3) n (%) | AE: Oral Disorder (Regimen 1A N = 16, All Grades): 1 (6.3) n (%) | AE: Pain In Extremity (Regimen 1A N = 16, All Grades): 1 (6.3) n (%) | AE: Pancytopenia (Regimen 1A N = 16, All Grades): 0 n (%) | AE: Pneumonia (Regimen 1A N = 16, All Grades): 1 (6.3) n (%) | AE: Pollakiuria (Regimen 1A N = 16, All Grades): 1 (6.3) n (%) | AE: Pyrexia (Regimen 1A N = 16, All Grades): 3 (18.8) n (%) | AE: Rash (Regimen 1A N = 16, All Grades): 1 (6.3) n (%) | AE: Rash Erythematous (Regimen 1A N = 16, All Grades): 1 (6.3) n (%) | AE: Rash Papular (Regimen 1A N = 16, All Grades): 1 (6.3) n (%) | AE: Rectal Haemorrhage (Regimen 1A N = 16, All Grades): 0 n (%) | AE: Renal Failure (Regimen 1A N = 16, All Grades): 0 n (%) | AE: Skin Exfoliation (Regimen 1A N = 16, All Grades): 1 (6.3) n (%) | AE: Stomatitis (Regimen 1A N = 16, All Grades): 1 (6.3) n (%) | AE: Subarachnoid Haemorrhage (Regimen 1A N = 16, All Grades): 1 (6.3) n (%) | AE: Thrombocytopenia/Platelet Count Decreased (Regimen 1A N = 16, All Grades): 8 (50.0) n (%) | AE: Total (Regimen 1A N = 16, All Grades): 15 (93.8) n (%) | AE: Tumour Lysis Syndrome (Regimen 1A N = 16, All Grades): 7 (43.8) n (%) | AE: Vomiting (Regimen 1A N = 16, All Grades): 5 (31.3) n (%) | AE: Weight Decreased (Regimen 1A N = 16, All Grades): 1 (6.3) n (%) | AE: White Blood Cell Count Decreased (Regimen 1A N = 16, All Grades): 1 (6.3) n (%) | AE: Abdominal Discomfort (Regimen 1A N = 16, Grade 3/4): 0 n (%) | AE: Abdominal Pain (Regimen 1A N = 16, Grade 3/4): 0 n (%) | AE: Abdominal Pain Upper (Regimen 1A N = 16, Grade 3/4): 0 n (%) | AE: Acute Kidney Injury (Regimen 1A N = 16, Grade 3/4): 0 n (%) | AE: Amylase Increased (Regimen 1A N = 16, Grade 3/4): 0 n (%) | AE: Anaemia (Regimen 1A N = 16, Grade 3/4): 4 (25.0) n (%) | AE: Arthralgia (Regimen 1A N = 16, Grade 3/4): 0 n (%) | AE: Asthenia (Regimen 1A N = 16, Grade 3/4): 0 n (%) | AE: Atrial Fibrillation (Regimen 1A N = 16, Grade 3/4): 0 n (%) | AE: Atypical Pneumonia (Regimen 1A N = 16, Grade 3/4): 0 n (%) | AE: Balanitis Candida (Regimen 1A N = 16, Grade 3/4): 0 n (%) | AE: Blood Alkaline Phosphatase Increased (Regimen 1A N = 16, Grade 3/4): 0 n (%) | AE: Blood Bilirubin Increased (Regimen 1A N = 16, Grade 3/4): 0 n (%) | AE: Blood Creatinine Increased (Regimen 1A N = 16, Grade 3/4): 0 n (%) | AE: Blood Phosphorus Increased (Regimen 1A N = 16, Grade 3/4): 0 n (%) | AE: Blood Uric Acid Increased (Regimen 1A N = 16, Grade 3/4): 1 (6.3) n (%) | AE: Bone Marrow Failure (Regimen 1A N = 16, Grade 3/4): 0 n (%) | AE: C-Reactive Protein Increased (Regimen 1A N = 16, Grade 3/4): 0 n (%) | AE: Cardiac Failure (Regimen 1A N = 16, Grade 3/4): 0 n (%) | AE: Cellulitis (Regimen 1A N = 16, Grade 3/4): 0 n (%) | AE: Chronic Graft Versus Host Disease (Regimen 1A N = 16, Grade 3/4): 1 (6.3) n (%) | AE: Conjunctival Haemorrhage (Regimen 1A N = 16, Grade 3/4): 0 n (%) | AE: Constipation (Regimen 1A N = 16, Grade 3/4): 0 n (%) | AE: Cough (Regimen 1A N = 16, Grade 3/4): 0 n (%) | AE: Cystitis Viral (Regimen 1A N = 16, Grade 3/4): 0 n (%) | AE: Cytomegalovirus Infection (Regimen 1A N = 16, Grade 3/4): 0 n (%) | AE: Decreased Appetite (Regimen 1A N = 16, Grade 3/4): 0 n (%) | AE: Diarrhoea (Regimen 1A N = 16, Grade 3/4): 0 n (%) | AE: Dyspepsia (Regimen 1A N = 16, Grade 3/4): 0 n (%) | AE: Dyspnoea (Regimen 1A N = 16, Grade 3/4): 1 (6.3) n (%) | AE: Epistaxis (Regimen 1A N = 16, Grade 3/4): 0 n (%) | AE: Fatigue (Regimen 1A N = 16, Grade 3/4): 0 n (%) | AE: Febrile Neutropenia (Regimen 1A N = 16, Grade 3/4): 4 (25.0) n (%) | AE: Gamma-Glutamyltransferase Increased (Regimen 1A N = 16, Grade 3/4): 1 (6.3) n (%) | AE: General Physical Health Deterioration (Regimen 1A N = 16, Grade 3/4): 0 n (%) | AE: Gingival Bleeding (Regimen 1A N = 16, Grade 3/4): 0 n (%) | AE: Graft Versus Host Disease (Regimen 1A N = 16, Grade 3/4): 0 n (%) | AE: Haemoglobin Decreased (Regimen 1A N = 16, Grade 3/4): 0 n (%) | AE: Headache (Regimen 1A N = 16, Grade 3/4): 0 n (%) | AE: Hyperbilirubinaemia (Regimen 1A N = 16, Grade 3/4): 0 n (%) | AE: Hyperglycaemia (Regimen 1A N = 16, Grade 3/4): 0 n (%) | AE: Hyperkalaemia (Regimen 1A N = 16, Grade 3/4): 0 n (%) | AE: Hyperphosphataemia (Regimen 1A N = 16, Grade 3/4): 0 n (%) | AE: Hyperuricaemia (Regimen 1A N = 16, Grade 3/4): 1 (6.3) n (%) | AE: Hypoalbuminaemia (Regimen 1A N = 16, Grade 3/4): 0 n (%) | AE: Hypocalcaemia (Regimen 1A N = 16, Grade 3/4): 0 n (%) | AE: Hypokalaemia (Regimen 1A N = 16, Grade 3/4): 0 n (%) | AE: Hypomagnesaemia (Regimen 1A N = 16, Grade 3/4): 0 n (%) | AE: Hyponatraemia (Regimen 1A N = 16, Grade 3/4): 0 n (%) | AE: Hypophosphataemia (Regimen 1A N = 16, Grade 3/4): 2 (12.5) n (%) | AE: Hypotension (Regimen 1A N = 16, Grade 3/4): 0 n (%) | AE: Infection (Regimen 1A N = 16, Grade 3/4): 1 (6.3) n (%) | AE: Infective Glossitis (Regimen 1A N = 16, Grade 3/4): 0 n (%)
